According to patent US12187746B2, “C26-linked rapamycin analogs as mTOR inhibitors” (Revolution Medicines, Inc., priority 2018, dated 2025):

Tests used:
P-P70S6K (T389) = test: Cell based AlphaLISA assay, inhibition of P-P70S6K (T389) in MDA-MB-468 cells; conditions: Homo sapiens, 4 h, 0.017-1,000 nM, two to four hours at 37° C., AlphaLisa SureFire Ultra, read-out: pIC50 for Inhibition of mTORC1 and mTORC2 Substrate Phosphorylation, p-P70S6K-(T389) (converted)
Procedure: (§1) Cell Based AlphaLISA Assays For Determining IC50 For Inhibition of P-Akt (S473), P-4E-BP1 (T37/46), and P-P70S6K (T389) in MDA-MB-468 Cells
(§2) mTOR Kinase Cellular Assay
(§3) To measure functional activity of mTORC1 and mTORC2 in cells the phosphorylation of 4EBP1 (Thr37/46) and P70S6K (Thr389), and AKT1/2/3 (Ser473) was monitored using AlphaLisa SureFire Ultra Kits (Perkin Elmer). […] Incubations are terminated by removal of the assay buffer and addition of lysis buffer provided with the assay kit. Samples are processed according to the manufacturer's instructions. The Alpha signal from the respective phosphoproteins is measured in duplicate using a microplate reader (Envision, Perkin-Elmer or Spectramax M5, Molecular Devices). Inhibitor concentration response curves are analyzed using normalized IC50 regression curve fitting with control based normalization.

P-Akt (S473) = test: Cell based AlphaLISA assay, inhibition of P-Akt (S473) in MDA-MB-468 cells; conditions: Homo sapiens, 4 h, 0.017-1,000 nM, two to four hours at 37° C., AlphaLisa SureFire Ultra, read-out: pIC50 for Inhibition of mTORC1 and mTORC2 Substrate Phosphorylation, p-AKT1/2/3-(S473) (converted)
Procedure: as §1, §2, §3

P-4E-BP1 (T37/46) = test: Cell based AlphaLISA assay, inhibition of P-4E-BP1 (T37/46) in MDA-MB-468 cells; conditions: Homo sapiens, 4 h, 0.017-1,000 nM, two to four hours at 37° C., AlphaLisa SureFire Ultra, read-out: pIC50 for Inhibition of mTORC1 and mTORC2 Substrate Phosphorylation, p-4E-BP1-(T37/46) (converted)
Procedure: as §1, §2, §3

CO[C@H]1C[C@@H]2CC[C@@H](C)[C@@](O)(O2)C(=O)C(=O)N2CCCC[C@H]2C(=O)O[C@H]([C@H](C)C[C@@H]2CC[C@@H](O)[C@H](OC)C2)C[C@@H](O)[C@H](C)/C=C(\C)[C@@H](O)[C@@H](OC)C(=NOCC(=O)NCCOCCOCCOCCOCCOCCOCCOCCOCCC(=O)NCCCCn2nc(-c3ccc4oc(N)nc4c3)c3c(N)ncnc32)[C@H](C)C[C@H](C)/C=C/C=C/C=C/1C [Example 1]
IC50 (P-P70S6K (T389)): 1 to 10 nM | IC50 (P-Akt (S473)): 31.6 to 1000 nM | IC50 (P-4E-BP1 (T37/46)): 3.16 to 31.6 nM

CO[C@H]1C[C@@H]2CC[C@@H](C)[C@@](O)(O2)C(=O)C(=O)N2CCCC[C@H]2C(=O)O[C@H]([C@H](C)C[C@@H]2CC[C@@H](O)[C@H](OC)C2)C[C@@H](O)[C@H](C)/C=C(\C)[C@@H](O)[C@@H](OC)C(=NOCC(=O)NCCOCCOCCOCCOCCOCCOCCC(=O)NCCCCn2nc(-c3ccc4oc(N)nc4c3)c3c(N)ncnc32)[C@H](C)C[C@H](C)/C=C/C=C/C=C/1C [Example 2]
IC50 (P-P70S6K (T389)): < 1 nM | IC50 (P-Akt (S473)): 31.6 to 1000 nM | IC50 (P-4E-BP1 (T37/46)): 3.16 to 31.6 nM

CO[C@H]1C[C@@H]2CC[C@@H](C)[C@@](O)(O2)C(=O)C(=O)N2CCCC[C@H]2C(=O)O[C@H]([C@H](C)C[C@@H]2CC[C@@H](O)[C@H](OC)C2)C[C@@H](O)[C@H](C)/C=C(\C)[C@@H](O)[C@@H](OC)/C(=N/OCC(=O)NCCOCCOCCOCCOCCOCCOCCC(=O)NCCCCn2nc(-c3ccc4oc(N)nc4c3)c3c(N)ncnc32)[C@H](C)C[C@H](C)/C=C/C=C/C=C/1C [Example 3]
IC50 (P-P70S6K (T389)): < 1 nM | IC50 (P-Akt (S473)): 31.6 to 1000 nM | IC50 (P-4E-BP1 (T37/46)): 3.16 to 31.6 nM

CO[C@H]1C[C@@H]2CC[C@@H](C)[C@@](O)(O2)C(=O)C(=O)N2CCCC[C@H]2C(=O)O[C@H]([C@H](C)C[C@@H]2CC[C@@H](O)[C@H](OC)C2)C[C@@H](O)[C@H](C)/C=C(\C)[C@@H](O)[C@@H](OC)C(=NOCC(=O)NCCOCCOCCOCCOCCOCCOCCOCCOCCC(=O)N2CCc3cc(Cn4nc(-c5ccc6oc(N)nc6c5)c5c(N)ncnc54)ccc3C2)[C@H](C)C[C@H](C)/C=C/C=C/C=C/1C [Example 4]
IC50 (P-P70S6K (T389)): < 1 nM | IC50 (P-Akt (S473)): 31.6 to 1000 nM | IC50 (P-4E-BP1 (T37/46)): 3.16 to 31.6 nM

CO[C@H]1C[C@@H]2CC[C@@H](C)[C@@](O)(O2)C(=O)C(=O)N2CCCC[C@H]2C(=O)O[C@H]([C@H](C)C[C@@H]2CC[C@@H](O)[C@H](OC)C2)C[C@@H](O)[C@H](C)/C=C(\C)[C@@H](O)[C@@H](OC)C(=NOCC(=O)NCCOCCOCCOCCOCCOCCOCCC(=O)N2CCc3cc(Cn4nc(-c5ccc6oc(N)nc6c5)c5c(N)ncnc54)ccc3C2)[C@H](C)C[C@H](C)/C=C/C=C/C=C/1C [Example 5]
IC50 (P-P70S6K (T389)): < 1 nM | IC50 (P-Akt (S473)): 31.6 to 1000 nM | IC50 (P-4E-BP1 (T37/46)): < 3.16 nM

CO[C@H]1C[C@@H]2CC[C@@H](C)[C@@](O)(O2)C(=O)C(=O)N2CCCC[C@H]2C(=O)O[C@H]([C@H](C)C[C@@H]2CC[C@@H](O)[C@H](OC)C2)C[C@@H](O)[C@H](C)/C=C(\C)[C@@H](O)[C@@H](OC)C(=NOCC(=O)NCCOCCOCCOCCOCCOCCOCCOCCOCCC(=O)NCCCCn2nc(-c3cnc4[nH]ccc4c3)c3c(N)ncnc32)[C@H](C)C[C@H](C)/C=C/C=C/C=C/1C [Example 6]
IC50 (P-P70S6K (T389)): 1 to 10 nM | IC50 (P-Akt (S473)): > 1000 nM | IC50 (P-4E-BP1 (T37/46)): 3.16 to 31.6 nM

CO[C@H]1C[C@@H]2CC[C@@H](C)[C@@](O)(O2)C(=O)C(=O)N2CCCC[C@H]2C(=O)O[C@H]([C@H](C)C[C@@H]2CC[C@@H](O)[C@H](OC)C2)C[C@@H](O)[C@H](C)/C=C(\C)[C@@H](O)[C@@H](OC)C(=NOCC(=O)NCCOCCOCCOCCOCCOCCOCCC(=O)NCCCCn2nc(-c3cnc4[nH]ccc4c3)c3c(N)ncnc32)[C@H](C)C[C@H](C)/C=C/C=C/C=C/1C [Example 7]
IC50 (P-P70S6K (T389)): < 1 nM | IC50 (P-Akt (S473)): > 1000 nM | IC50 (P-4E-BP1 (T37/46)): 3.16 to 31.6 nM

CO[C@H]1C[C@@H]2CC[C@@H](C)[C@@](O)(O2)C(=O)C(=O)N2CCCC[C@H]2C(=O)O[C@H]([C@H](C)C[C@@H]2CC[C@@H](O)[C@H](OC)C2)C[C@@H](OC)[C@H](C)/C=C(\C)[C@@H](O)[C@@H](OC)C(=NOCC(=O)NCCOCCOCCOCCOCCOCCOCCOCCOCCC(=O)NCCCCn2nc(-c3cnc4[nH]ccc4c3)c3c(N)ncnc32)[C@H](C)C[C@H](C)/C=C/C=C/C=C/1C [Example 8]
IC50 (P-P70S6K (T389)): < 1 nM | IC50 (P-Akt (S473)): > 1000 nM | IC50 (P-4E-BP1 (T37/46)): 3.16 to 31.6 nM

CO[C@H]1C[C@@H]2CC[C@@H](C)[C@@](O)(O2)C(=O)C(=O)N2CCCC[C@H]2C(=O)O[C@H]([C@H](C)C[C@@H]2CC[C@@H](O)[C@H](OC)C2)C[C@@H](O)[C@H](C)/C=C(\C)[C@@H](O)[C@@H](OC)C(=NOCC(=O)NCCOCCOCCOCCOCCOCCOCCOCCOCCC(=O)N2CCc3cc(Cn4nc(-c5cnc6[nH]ccc6c5)c5c(N)ncnc54)ccc3C2)[C@H](C)C[C@H](C)/C=C/C=C/C=C/1C [Example 9]
IC50 (P-P70S6K (T389)): 1 to 10 nM | IC50 (P-Akt (S473)): > 1000 nM | IC50 (P-4E-BP1 (T37/46)): 3.16 to 31.6 nM

CO[C@H]1C[C@@H]2CC[C@@H](C)[C@@](O)(O2)C(=O)C(=O)N2CCCC[C@H]2C(=O)O[C@H]([C@H](C)C[C@@H]2CC[C@@H](O)[C@H](OC)C2)C[C@@H](OC)[C@H](C)/C=C(\C)[C@@H](O)[C@@H](OC)C(=NOCC(=O)NCCOCCOCCOCCOCCOCCOCCOCCOCCC(=O)N2CCc3cc(Cn4nc(-c5cnc6[nH]ccc6c5)c5c(N)ncnc54)ccc3C2)[C@H](C)C[C@H](C)/C=C/C=C/C=C/1C [Example 11]
IC50 (P-P70S6K (T389)): 1 to 10 nM | IC50 (P-Akt (S473)): > 1000 nM | IC50 (P-4E-BP1 (T37/46)): 3.16 to 31.6 nM

COc1ccc(-c2ccc3ncc4c(c3c2)n(-c2ccc(N3CCN(C(=O)CCOCCOCCOCCOCCOCCOCCNC(=O)CON=C5[C@H](C)C[C@H](C)/C=C/C=C/C=C(\C)[C@@H](OC)C[C@@H]6CC[C@@H](C)[C@@](O)(O6)C(=O)C(=O)N6CCCC[C@H]6C(=O)O[C@H]([C@H](C)C[C@@H]6CC[C@@H](O)[C@H](OC)C6)C[C@@H](O)[C@H](C)/C=C(\C)[C@@H](O)[C@H]5OC)CC3)c(C(F)(F)F)c2)c(=O)n4C)cn1 [Example 13]
IC50 (P-P70S6K (T389)): < 1 nM | IC50 (P-Akt (S473)): 3.16 to 31.6 nM | IC50 (P-4E-BP1 (T37/46)): < 3.16 nM

COc1ccc(-c2ccc3ncc4c(c3c2)n(-c2ccc(N3CCN(c5ncc(CNC(=O)CCOCCOCCOCCOCCOCCOCCNC(=O)CON=C6[C@H](C)C[C@H](C)/C=C/C=C/C=C(\C)[C@@H](OC)C[C@@H]7CC[C@@H](C)[C@@](O)(O7)C(=O)C(=O)N7CCCC[C@H]7C(=O)O[C@H]([C@H](C)C[C@@H]7CC[C@@H](O)[C@H](OC)C7)C[C@@H](O)[C@H](C)/C=C(\C)[C@@H](O)[C@H]6OC)cn5)CC3)c(C(F)(F)F)c2)c(=O)n4C)cn1 [Example 14]
IC50 (P-P70S6K (T389)): < 1 nM | IC50 (P-Akt (S473)): 31.6 to 1000 nM | IC50 (P-4E-BP1 (T37/46)): 3.16 to 31.6 nM

CO[C@H]1C[C@@H]2CC[C@@H](C)[C@@](O)(O2)C(=O)C(=O)N2CCCC[C@H]2C(=O)O[C@H]([C@H](C)C[C@@H]2CC[C@@H](O)[C@H](OC)C2)C[C@@H](O)[C@H](C)/C=C(\C)[C@@H](O)[C@@H](OC)C(=NOCC(=O)N2CCc3nc(N4CCN(c5ncc(C(=O)NCCOCCOCCOCCC(=O)NCCCCn6nc(-c7ccc8oc(N)nc8c7)c7c(N)ncnc76)cn5)CC4)ncc3C2)[C@H](C)C[C@H](C)/C=C/C=C/C=C/1C [Example 15]
IC50 (P-P70S6K (T389)): 1 to 10 nM | IC50 (P-Akt (S473)): 31.6 to 1000 nM | IC50 (P-4E-BP1 (T37/46)): 3.16 to 31.6 nM

CO[C@H]1C[C@@H]2CC[C@@H](C)[C@@](O)(O2)C(=O)C(=O)N2CCCC[C@H]2C(=O)O[C@H]([C@H](C)C[C@@H]2CC[C@@H](O)[C@H](OC)C2)C[C@@H](O)[C@H](C)/C=C(\C)[C@@H](O)[C@@H](OC)C(=NOCC(=O)N2CCc3nc(N4CCN(c5ncc(C(=O)NCCOCCOCCC(=O)NCCCCn6nc(-c7ccc8oc(N)nc8c7)c7c(N)ncnc76)cn5)CC4)ncc3C2)[C@H](C)C[C@H](C)/C=C/C=C/C=C/1C [Example 16]
IC50 (P-P70S6K (T389)): 1 to 10 nM | IC50 (P-Akt (S473)): > 1000 nM | IC50 (P-4E-BP1 (T37/46)): 3.16 to 31.6 nM

CO[C@H]1C[C@@H]2CC[C@@H](C)[C@@](O)(O2)C(=O)C(=O)N2CCCC[C@H]2C(=O)O[C@H]([C@H](C)C[C@@H]2CC[C@@H](O)[C@H](OC)C2)C[C@@H](O)[C@H](C)/C=C(\C)[C@@H](O)[C@@H](OC)C(=NOCC(=O)N2CCc3nc(N4CCN(c5ncc(C(=O)NCCOCCC(=O)NCCCCn6nc(-c7ccc8oc(N)nc8c7)c7c(N)ncnc76)cn5)CC4)ncc3C2)[C@H](C)C[C@H](C)/C=C/C=C/C=C/1C [Example 17]
IC50 (P-P70S6K (T389)): 1 to 10 nM | IC50 (P-Akt (S473)): > 1000 nM | IC50 (P-4E-BP1 (T37/46)): 3.16 to 31.6 nM

CO[C@H]1C[C@@H]2CC[C@@H](C)[C@@](O)(O2)C(=O)C(=O)N2CCCC[C@H]2C(=O)O[C@H]([C@H](C)C[C@@H]2CC[C@@H](O)[C@H](OC)C2)C[C@@H](O)[C@H](C)/C=C(\C)[C@@H](O)[C@@H](OC)C(=NOCC(=O)N2CCc3nc(N4CCN(c5ncc(C(=O)NCCOCCC(=O)N6CCc7cc(Cn8nc(-c9ccc%10oc(N)nc%10c9)c9c(N)ncnc98)ccc7C6)cn5)CC4)ncc3C2)[C@H](C)CC(C)/C=C/C=C/C=C/1C (stereo partly drawn) [Example 18]
IC50 (P-P70S6K (T389)): 1 to 10 nM | IC50 (P-Akt (S473)): > 1000 nM | IC50 (P-4E-BP1 (T37/46)): 3.16 to 31.6 nM
